System: THP1 cells (LPS induced TNF release)
Test: Lipopolysaccharide-Activated THP1 Cell TNF Production Assay
Format: cell-based
Details: Homo sapiens, THP-1; THP1 cells, bacterial LPS, secreted TNF-α after 3 h at 37° C.; read-out: IC50 values in the THP1 cell assay (LPS induced TNF release)
Description: Lipopolysaccharide-Activated THP1 Cell TNF Production Assay
THP1 cells are resuspended in fresh THP1 media (RPMI 1640, 10% heat-inactivated FBS, 1×PGS, 1×NEAA, plus 30 μM βME) at a concentration of 1E6/mL. One hundred microliters of cells per well are plated in a polystyrene 96-well tissue culture. One microgram per mL of bacterial LPS is prepared in THP1 media and is transferred to the wells. Test compounds are dissolved in 100% DMSO and are serially diluted 3 fold in a polypropylene 96-well microtiter plate (drug plate). HI control and LO control wells contain only DMSO. One microliter of test compound from the drug plate followed by 10 μL of LPS are transferred to the cell plate. The treated cells are induced to synthesize and secrete TNF-α at 37° C. for 3 h. Forty microliters of conditioned media are transferred to a 96-well polypropylene plate containing 110 μL of ECL buffer (50 mM Tris-HCl pH 8.0, 100 mM NaCl, 0.05% Tween 20, 0.05% NaN3 and 1% FBS) supplemented with 0.44 nM MAB610 monoclonal Ab (R&D Systems), 0.34 nM ruthenylated AF210NA polyclonal Ab (R&D Systems) and 44 μg/mL sheep anti-mouse M280 Dynabeads (Dynal). After a 2 h incubation at RT with shaking, the reaction is read on the ECL M8 Instrument (IGEN Inc.). A low voltage is applied to the ruthenylated TNF-α immune complexes, which in the presence of TPA (the active component in Origlo), results in a cyclical redox reaction generating light at […]. The amount of secreted TNF-α in the presence of compound compared with that in the presence of DMSO vehicle alone (HI control) is calculated using the formula: % control (POC)=(cpd−average LO)/(average HI−average LO)*100. Data (consisting of POC and inhibitor concentration in μM) is fitted to a 4-parameter equation (y=A+((B−A)/(1+((×/C)ôD))), where A is the minimum y (POC) value, B is the maximum y (POC), C is the x (cpd concentration) at the point of inflection and D is the slope factor) using a Levenburg-Marquardt non-linear regression algorithm.

Row | SMILES | IC50
1 | CN(c1ccnc(N[C@H]2CC[C@H](N)CC2)n1)c1ccnc(-c2ccccc2F)n1 [Example 93, N^2-(4-Aminocyclohexyl)-N^4-(2-(2-fluorophenyl)pyrimidin-4-yl)-N^4-methyl-pyrimidine-2,4-diamine] | ≤ 20 µM
2 | Cc1cc(N(C)c2ccnc(-c3ccccc3)n2)nc(NC2CCC(N)CC2)n1 (stereo not drawn) [Example 33, N2-((1r,4r)-4-Aminocyclohexyl)-N4,6-dimethyl-N4-(2-phenylpyrimidin-4-yl)pyrimidine-2,4-diamine] | ≤ 20 µM
3 | CN(c1ccnc(NC[C@H](N)c2ccccc2)n1)c1ccnc(-c2ccccc2)n1 [Example 112] | ≤ 20 µM
4 | C[C@@H](Cc1cccc(C(C)(C)N)c1)Nc1nccc(N(C)c2ccnc(-c3ccccc3)n2)n1 [Example 29, (S)-N^2-(1-(3-(2-Aminopropan-2-yl)phenyl)propan-2-yl)-N^4-methyl-N^4-(2-phenylpyrimidin-4-yl)pyrimidine-2,4-diamine] | ≤ 20 µM
5 | Cc1cccc(-c2cccc(N(C)c3ccnc(NCCc4ccccc4)n3)n2)c1 [Example 138, N^4-Methyl-N^2-phenethyl-N^4-(6-m-tolylpyridin-2-yl)-pyrimidine-2,4-diamine] | ≤ 20 µM
6 | CN(c1cc(-c2ccccc2)c(=O)n(C)c1)c1ccnc(NC2CCN(C(=O)OC(C)(C)C)CC2)n1 [Example 173, tert-Butyl 4-(4-(Methyl(1-methyl-6-oxo-5-phenyl-1,6-dihydropyridin-3-yl)amino)pyrimidin-2-ylamino)piperidine-1-carboxylate] | ≤ 20 µM
7 | CSc1nccc(Nc2cc(-c3ccccc3)c(=O)n(C)c2)n1 [1-methyl-5-((2-(methylsulfanyl)-4-pyrimidinyl)amino)-3-phenyl-2(1H)-pyridinone] | ≤ 20 µM
8 | CN(c1ccnc(NCCc2ccccc2Cl)n1)c1ccnc(-c2ccccc2)n1 [Example 14, N^2-(2-Chlorophenethyl)-N^4-methyl-N^4-(2-phenylpyrimidin-4-yl)pyrimidine-2,4-diamine] | ≤ 20 µM
9 | CN(c1cccc(-c2cccs2)n1)c1ccnc(NCCc2ccccc2)n1 [Example 150, N^4-Methyl-N^2-phenethyl-N^4-(6-(thiophen-2-yl)pyridin-2-yl)pyrimidine-2,4-diamine] | ≤ 20 µM
10 | Clc1nnc(Nc2ccnc(N3CCCC3Cc3ccccc3)n2)cc1-c1ccccc1 (stereo not drawn) [Example 182, N-(2-(2-Benzylpyrrolidin-1-yl)pyrimidin-4-yl)-6-chloro-5-phenylpyridazin-3-amine] | ≤ 20 µM
11 | CN(c1ccnc(NCCc2ccccn2)n1)c1ccnc(-c2ccccc2)n1 [Example 107, N^4-Methyl-N^4-(2-phenylpyrimidin-4-yl)-N^2-(2-(pyridin-2-yl)ethyl)pyrimidine-2,4-diamine] | ≤ 20 µM
12 | CN(c1cccc(Cc2ccccc2)n1)c1ccnc(NCCc2ccccc2)n1 [Example 151, N^4-(6-Benzylpyridin-2-yl)-N^4-methyl-N^2-phenethylpyrimidine-2,4-diamine] | ≤ 20 µM
13 | CN(c1cccc(-c2ccc(Cl)cc2)n1)c1ccnc(NCCc2ccccc2)n1 [Example 134, N^4-(6-(4-Chlorophenyl)pyridin-2-yl)-N^4-methyl-N^2-phenethylpyrimidine-2,4-diamine] | ≤ 20 µM
14 | CC(Cc1cccc(CN)c1)Nc1nccc(N(C)c2c[nH]c(=O)c(-c3ccccc3)c2)n1 (stereo not drawn) [Example 171, 5-((2-(1-(3-(Aminomethyl)phenyl)propan-2-ylamino)pyrimidin-4-yl)(methyl)-amino)-3-phenylpyridin-2(1H)-one] | ≤ 20 µM
15 | Cc1ccccc1-c1cccc(N(C)c2ccnc(NCCc3ccccc3)n2)n1 [Example 139, N^4-Methyl-N^2-phenethyl-N^4-(6-o-tolylpyridin-2-yl)-pyrimidine-2,4-diamine] | ≤ 20 µM
16 | C[C@@H](Cc1cc(CN)ccc1Cl)Nc1nccc(N(C)c2ccnc(-c3ccccc3)n2)n1 [Example 42, (S)-N^2-(1-(5-(Aminomethyl)-2-chlorophenyl)propan-2-yl)-N^4-methyl-N^4-(2-phenyl-pyrimidin-4-yl)pyrimidine-2,4-diamine] | ≤ 20 µM
17 | Cc1nccn1-c1nccc(N(C)c2ccnc(-c3ccccc3)n2)n1 [N-methyl-N-(2-(2-methyl-1H-imidazol-1-yl)pyrimidin-4-yl)-2-phenylpyrimidin-4-amine] | ≤ 20 µM

Row | SMILES | IC50
18 | CN(c1cc(-c2ccccc2)c(=O)n(C)c1)c1ccnc(NCCc2ccccc2)n1 [Example 176, 1-Methyl-5-(methyl(2-(phenethylamino)pyrimidin-4-yl)amino)-3-phenylpyridin-2(1H)-one] | ≤ 20 µM
19 | CNC(=O)c1cnc(-c2ccccc2)nc1Nc1ccnc(NCCc2ccccn2)n1 [Example 99, N-Methyl-2-phenyl-4-(2-(2-(pyridin-2-yl)ethylamino)pyrimidin-4-ylamino)-pyrimidine-5-carboxamide] | ≤ 20 µM
20 | CN(c1ccnc(NCCc2cccnc2)n1)c1ccnc(-c2ccccc2C(F)(F)F)n1 [Example 75, N^4-Methyl-N^2-(2-(pyridin-3-yl)ethyl)-N^4-(2-(2-(trifluoromethyl)phenyl)pyrimidin-4-yl)pyrimidine-2,4-diamine] | ≤ 20 µM
21 | C[C@@H](Cc1cccc(CN)c1)Nc1nccc(N(C)c2c[nH]c(=O)c(-c3ccccc3F)c2)n1 [Example 169] | ≤ 20 µM
22 | C[C@@H](Cc1cc(C#N)ccc1Cl)Nc1nccc(N(C)c2ccnc(-c3ccccc3)n2)n1 [Example 41, (S)-4-Chloro-3-(2-(4-(methyl(2-phenylpyrimidin-4-yl)amino)pyrimidin-2-ylamino)-propyl)benzonitrile] | ≤ 20 µM
23 | CNC(=O)c1cnc(-c2ccccc2)nc1Nc1ccnc(NCCc2cccnc2)n1 [Example 101, N-Methyl-2-phenyl-4-(2-(2-(pyridin-3-yl)ethylamino)pyrimidin-4-ylamino)-pyrimidine-5-carboxamide] | ≤ 20 µM
24 | COc1nc(-c2ccccc2)nc(N(C)c2ccnc(N[C@@H](C)Cc3cccc(CN)c3)n2)n1 [Example 121, (S)-N^2-(1-(3-(Aminomethyl)phenyl)propan-2-yl)-N^4-(4-methoxy-6-phenyl-1,3,5-triazin-2-yl)-N^4-methylpyrimidine-2,4-diamine] | ≤ 20 µM
25 | Cn1c(Nc2ccnc(NCCc3ccccc3Cl)n2)cc(-c2ccccc2)cc1=O [Example 160, 6-(2-(2-Chlorophenethylamino)pyrimidin-4-ylamino)-1-methyl-4-phenylpyridin-2(1H)-one] | ≤ 20 µM
26 | CN(c1ccnc(NC2CCN(C(=O)CN)CC2)n1)c1ccnc(-c2ccccc2)n1 [Example 43, 2-Amino-1-(4-(4-(methyl(2-phenylpyrimidin-4-yl)amino)pyrimidin-2-ylamino)-piperidin-1-yl)ethanone] | ≤ 20 µM
27 | CN(c1ccnc(NCCc2ccccn2)n1)c1cc(O)nc(-c2ccccc2)n1 [Example 120, 6-(Methyl(2-(2-(pyridin-2-yl)ethylamino)pyrimidin-4-yl)amino)-2-phenylpyrimidin-4-ol] | ≤ 20 µM
28 | CC(Cc1cccc(CN)c1)Nc1nccc(N(C)c2cc(N)nc(-c3ccccc3)n2)n1 (stereo not drawn) [Example 181, N^4-(2-(1-(3-(Aminomethyl)phenyl)propan-2-ylamino)pyrimidine-4-yl)-N^4-methyl-2-phenylpyrimidine-4,6-diamine] | ≤ 20 µM
29 | CN(c1ccnc(N[C@H]2CC[C@H](N)CC2)n1)c1nc(-c2ccccc2)ncc1F [Example 67, N^2-(4-Aminocyclohexyl)-N^4-(5-fluoro-2-phenylpyrimidin-4-yl)-N^4-methyl-pyrimidine-2,4-diamine] | ≤ 20 µM
30 | C[C@H](N)C1CCCC(CCNc2nccc(N(C)c3ccnc(-c4ccccc4)n3)n2)C1 (stereo partly drawn) [Example 12, N^2-(2-(3-((S)-1-Aminoethyl)cyclohexyl)ethyl)-N^4-methyl-N^4-(2-phenylpyrimidin-4-yl)pyrimidine-2,4-diamine] | ≤ 20 µM
31 | CN(c1ccnc(NCC(c2cccnc2)N2CCOCC2)n1)c1ccnc(-c2ccccc2)n1 (stereo not drawn) [Example 108, N^4-Methyl-N^2-(2-morpholino-2-(pyridin-3-yl)ethyl)-N^4-(2-phenylpyrimidin-4-yl)pyrimidine-2,4-diamine] | ≤ 20 µM
32 | C[C@@H](Cc1cccc([C@@H](C)N)c1)Nc1nccc(N(C)c2c[nH]c(=O)c(-c3ccccc3)c2)n1 [5-((2-((S)-1-(3-((R)-1-Aminoethyl)phenyl)propan-2-ylamino)pyrimidin-4-yl)-(methyl)amino)-3-phenylpyridin-2(1H)-one] | ≤ 20 µM
33 | CN(c1ccnc(NCC(c2cccnc2)N(C)C)n1)c1ccnc(-c2ccccc2)n1 (stereo not drawn) [Example 109, N^2-(2-(Dimethylamino)-2-(pyridin-3-yl)ethyl)-N^4-methyl-N^4-(2-phenylpyrimidin-4-yl)pyrimidine-2,4-diamine] | ≤ 20 µM

From patent US20060069110A1, “Substituted heterocyclic compounds and methods of use” (priority 2004, published 2006)
